One assay has as its target 5-HT2B (Homo sapiens, UniProt P41595). Description: SelectScreen cell-based GPCR assay, 5-HT2B. The note with it: 10 µM. The text has this: (§1) Profiling of compound activity versus a select panel of diverse GPCRs was undertaken by ThermoFisher Scientific (United Kingdom) via their SelectScreen cell-based GPCR assay panel. Detailed experimental protocols on this assay platform can be found at (https://www.thermofisher.com/content/dam/LifeTech/migration/en/filelibrary/services/discovery-research/pdfs.par.36410.file.dat/sscg-brochure.pdf). Briefly these assays detect agonist or antagonist activity using cell lines with the GPCR of interest over-expressed, driving the expression of a reporter gene encompassing a mammalian-optimized Beta-lactamase. Test compounds are incubated with the specific cell lines at the defined final concentration for 5 or 16 h (depending on the cell line specifics) before quantification of effect.

In the next assay the target is delta opioid (Homo sapiens, UniProt P41143). Put plainly: SelectScreen cell-based GPCR assay, delta opioid. The note with it: 10 µM.
Text: as §1

The test system of assay [1] is human vascular smooth muscle preparations. The note with it: ref Papp et al., 2019; Danahay et al., 2020b; cited from earlier work.
For assay [2], the system named is human bronchial smooth muscle. The note with it: cited from earlier work.
For assay [3] the following is noted: cited from earlier work.

Chain of delta opioid (P41143 whole entry): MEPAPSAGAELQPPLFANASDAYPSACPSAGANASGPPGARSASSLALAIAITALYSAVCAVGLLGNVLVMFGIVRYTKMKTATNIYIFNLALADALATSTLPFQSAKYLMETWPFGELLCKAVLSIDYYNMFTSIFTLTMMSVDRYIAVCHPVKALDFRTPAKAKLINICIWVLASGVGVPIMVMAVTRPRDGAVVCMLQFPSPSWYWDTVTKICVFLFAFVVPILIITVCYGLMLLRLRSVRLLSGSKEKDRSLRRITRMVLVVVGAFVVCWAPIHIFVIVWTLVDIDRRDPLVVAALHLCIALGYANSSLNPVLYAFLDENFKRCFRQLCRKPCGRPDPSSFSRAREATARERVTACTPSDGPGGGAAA
Chain of 5-HT2B (P41595 whole entry): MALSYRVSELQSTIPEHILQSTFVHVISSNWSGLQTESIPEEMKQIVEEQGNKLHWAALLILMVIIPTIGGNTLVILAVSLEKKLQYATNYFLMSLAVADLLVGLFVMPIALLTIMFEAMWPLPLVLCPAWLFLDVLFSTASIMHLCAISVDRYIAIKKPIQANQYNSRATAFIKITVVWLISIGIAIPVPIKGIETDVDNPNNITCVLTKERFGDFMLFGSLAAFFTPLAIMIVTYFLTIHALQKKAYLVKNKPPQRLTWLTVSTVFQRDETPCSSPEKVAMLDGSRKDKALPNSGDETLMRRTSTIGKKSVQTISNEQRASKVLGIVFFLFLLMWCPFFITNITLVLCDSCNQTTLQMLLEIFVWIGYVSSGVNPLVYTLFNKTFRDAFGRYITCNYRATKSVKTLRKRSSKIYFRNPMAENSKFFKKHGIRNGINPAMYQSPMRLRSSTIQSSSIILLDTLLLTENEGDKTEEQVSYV

Regarding `COc1ccccc1/C=N/NC(=O)COc1ccc(Cl)cc1C` [Ani9], the “inhibition of 5-HT2B” value against 5-HT2B is given as at least 50%. For the same molecule, the “inhibition of delta opioid” value on delta opioid was at least 50%. Regarding `CCc1c(C)nc(SCC(=O)Nc2nc(-c3ccc(OC)cc3)cs2)[nH]c1=O` [T16Ainh-A01], the “activity in human vascular smooth muscle preparations” value in assay [1] was “failed to show activity”.

Turning to ETX001, in assay [2], the “effect on freshly isolated human bronchial smooth muscle tone” value was “no effect”. For the same molecule, the “effect on lung function in vivo” value in assay [3] is listed as “no effect”.

These data come from PMC10025480 (Frontiers in Pharmacology, 2023).
